# Test results published in paper PMC12888861, “Antibacterial activity of enmetazobactam against Acinetobacter spp.: a molecular dissection of mechanism of action and resistance determinants” (Antimicrobial Agents and Chemotherapy, 2025).
# Where two headings read alike, the source gives them in different places.
# Tested on: A. non-baumannii isolates (n = 87)
# Assay: MIC, broth microdilution (EUCAST), A. non-baumannii isolates
# Type: cell-based, Acinetobacter spp. (non-baumannii)
# Details: for MIC: in combinations ETZ fixed at 8 mg/L
# Summary of the method: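 Clinical isolates from the Spanish National Acinetobacter spp. 2020 collection were tested by EUCAST v.15 broth microdilution, including enmetazobactam on its own. Duplicate runs used A. baumannii ATCC 19606 as reference.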
structure (smiles),measurement,setting,value
CC1(C)[C@H](C(=O)O)N2C(=O)C[C@H]2S1(=O)=O [sulbactam],MIC distribution 0.12,,2.3
same,MIC distribution 0.25,,8.0
same,MIC distribution 0.5,,44.8
same,MIC distribution 1,,82.8
same,MIC distribution 2,,97.7
same,MIC distribution 4,,100
same,MIC distribution 8,,100
same,MIC distribution 16,,100
same,MIC distribution 32,,100
same,MIC distribution ≤0.06,,1.1
same,MIC,"Acinetobacter baylyi, isolate NO-Ab27, Acinetobacter baylyi, read-out: MIC",1 µg/mL
same,MIC,"Acinetobacter beijerinckii, isolate NO-Ab122, Acinetobacter beijerinckii, read-out: MIC",2 µg/mL
same,MIC,"Acinetobacter bereziniae, isolate NO-Ab70, Acinetobacter bereziniae, read-out: MIC",0.5 µg/mL
same,MIC,"Acinetobacter bereziniae, isolate NO-Ab84, Acinetobacter bereziniae, read-out: MIC",1 µg/mL
same,MIC,"Acinetobacter bereziniae, isolate NO-Ab104, Acinetobacter bereziniae, read-out: MIC",0.5 µg/mL
same,MIC,"Acinetobacter bereziniae, isolate NO-Ab114, Acinetobacter bereziniae, read-out: MIC",1 µg/mL
same,MIC,"Acinetobacter bereziniae, isolate NO-Ab115, Acinetobacter bereziniae, read-out: MIC",1 µg/mL
same,MIC,"Acinetobacter bereziniae, isolate NO-Ab116, Acinetobacter bereziniae, read-out: MIC",0.5 µg/mL
same,MIC,"Acinetobacter bereziniae, isolate NO-Ab117, Acinetobacter bereziniae, read-out: MIC",1 µg/mL
same,MIC,"Acinetobacter bereziniae, isolate NO-Ab129, Acinetobacter bereziniae, read-out: MIC",1 µg/mL
same,MIC,"Acinetobacter bereziniae, isolate NO-Ab156, Acinetobacter bereziniae, read-out: MIC",1 µg/mL
same,MIC,"Acinetobacter calcoaceticus, isolate NO-Ab85, Acinetobacter calcoaceticus, read-out: MIC",2 µg/mL
same,MIC,"Acinetobacter calcoaceticus, isolate NO-Ab94, Acinetobacter calcoaceticus, read-out: MIC",2 µg/mL
same,MIC,"Acinetobacter calcoaceticus, isolate NO-Ab108, Acinetobacter calcoaceticus, read-out: MIC",4 µg/mL
same,MIC,"Acinetobacter calcoaceticus, isolate NO-Ab161, Acinetobacter calcoaceticus, read-out: MIC",4 µg/mL
same,MIC,"Acinetobacter calcoaceticus, isolate NO-Ab198, Acinetobacter calcoaceticus, read-out: MIC",2 µg/mL
same,MIC,"Acinetobacter calcoaceticus, isolate NO-Ab205, Acinetobacter calcoaceticus, read-out: MIC",2 µg/mL
same,MIC,"Acinetobacter calcoaceticus, isolate NO-Ab211, Acinetobacter calcoaceticus, read-out: MIC",1 µg/mL
same,MIC,"Acinetobacter courvalinii, isolate NO-Ab216, Acinetobacter courvalinii, read-out: MIC",0.5 µg/mL
same,MIC,"Acinetobacter dispersus, isolate NO-Ab2, Acinetobacter dispersus, read-out: MIC",0.5 µg/mL
same,MIC,"Acinetobacter guillouiae, isolate NO-Ab69, Acinetobacter guillouiae, read-out: MIC",1 µg/mL
same,MIC,"Acinetobacter guillouiae, isolate NO-Ab74, Acinetobacter guillouiae, read-out: MIC",0.5 µg/mL
same,MIC,"Acinetobacter haemolyticus, isolate NO-Ab92, Acinetobacter haemolyticus",0.5 µg/mL
same,MIC,"Acinetobacter haemolyticus, isolate NO-Ab177, Acinetobacter haemolyticus",0.5 µg/mL
same,MIC,"Acinetobacter haemolyticus, isolate NO-Ab217, Acinetobacter haemolyticus",0.25 µg/mL
same,MIC,"Acinetobacter johnsonii, isolate NO-Ab101, Acinetobacter johnsonii, read-out: MIC",1 µg/mL
same,MIC,"Acinetobacter junii, isolate NO-Ab76, Acinetobacter junii, read-out: MIC",0.5 µg/mL
same,MIC,"Acinetobacter junii, isolate NO-Ab77, Acinetobacter junii, OXA-24/40, read-out: MIC",0.5 µg/mL
same,MIC,"Acinetobacter lactucae, isolate NO-Ab60, Acinetobacter dijkshoorniae, read-out: MIC",1 µg/mL
same,MIC,"Acinetobacter lactucae, isolate NO-Ab63, Acinetobacter dijkshoorniae, read-out: MIC",1 µg/mL
same,MIC,"Acinetobacter lactucae, isolate NO-Ab65, Acinetobacter dijkshoorniae, read-out: MIC",1 µg/mL
same,MIC,"Acinetobacter lactucae, isolate NO-Ab86, Acinetobacter dijkshoorniae, read-out: MIC",1 µg/mL
same,MIC,"Acinetobacter lactucae, isolate NO-Ab88, Acinetobacter dijkshoorniae, read-out: MIC",0.5 µg/mL
same,MIC,"Acinetobacter lactucae, isolate NO-Ab91, Acinetobacter dijkshoorniae, read-out: MIC",1 µg/mL
same,MIC,"Acinetobacter lactucae, isolate NO-Ab121, Acinetobacter dijkshoorniae, read-out: MIC",2 µg/mL
same,MIC,"Acinetobacter lactucae, isolate NO-Ab125, Acinetobacter dijkshoorniae, read-out: MIC",1 µg/mL
same,MIC,"Acinetobacter lactucae, isolate NO-Ab160, Acinetobacter dijkshoorniae, read-out: MIC",0.5 µg/mL
same,MIC,"Acinetobacter nosocomialis, isolate NO-Ab43, Acinetobacter nosocomialis, read-out: MIC",2 µg/mL
same,MIC,"Acinetobacter nosocomialis, isolate NO-Ab68, Acinetobacter nosocomialis, OXA-24/40, read-out: MIC",1 µg/mL
same,MIC,"Acinetobacter nosocomialis, isolate NO-Ab98, Acinetobacter nosocomialis, read-out: MIC",2 µg/mL
same,MIC,"Acinetobacter nosocomialis, isolate NO-Ab208, Acinetobacter nosocomialis, read-out: MIC",0.5 µg/mL
